Values of other authors as cited in patent US9801907B2, “Film-coated and/or granulated calcium-containing compounds and use therof in pharmaceutical compositions” (Takeda Nycomed AS, priority 2005, dated 2017).

Assays:
[1] = parts substance in parts water
[2] = annual injections of 150.000-300.000 IU; not in the rate of hip fracture

| Compound | Solubility in water at 20° C. [1] | overall fracture rate [2] |
| --- | --- | --- |
| Maltodextrins | Freely soluble | – |
| OC[C@@H](O)[C@@H](O[C@H]1O[C@H](CO)[C@@H](O)[C@H](O)[C@H]1O)[C@H](O)[C@@H](O)CO [Maltitol] | Freely soluble | – |
| vitamin D | – | significant reduction |
